Test results taken from ChEMBL document CHEMBL5576083, “Structure-Based Design and Synthesis of Covalent Inhibitors for Deubiquitinase and Acetyltransferase ChlaDUB1 of Chlamydia trachomatis” (J Med Chem, 2024).
Active and inactive are the calls of the source. The rule behind the calls is not given here.

Molecular target: T1, Ubiquitin carboxyl-terminal hydrolase 28 (Homo sapiens) (UniProt Q96RU2)
T1 sequence (whole entry): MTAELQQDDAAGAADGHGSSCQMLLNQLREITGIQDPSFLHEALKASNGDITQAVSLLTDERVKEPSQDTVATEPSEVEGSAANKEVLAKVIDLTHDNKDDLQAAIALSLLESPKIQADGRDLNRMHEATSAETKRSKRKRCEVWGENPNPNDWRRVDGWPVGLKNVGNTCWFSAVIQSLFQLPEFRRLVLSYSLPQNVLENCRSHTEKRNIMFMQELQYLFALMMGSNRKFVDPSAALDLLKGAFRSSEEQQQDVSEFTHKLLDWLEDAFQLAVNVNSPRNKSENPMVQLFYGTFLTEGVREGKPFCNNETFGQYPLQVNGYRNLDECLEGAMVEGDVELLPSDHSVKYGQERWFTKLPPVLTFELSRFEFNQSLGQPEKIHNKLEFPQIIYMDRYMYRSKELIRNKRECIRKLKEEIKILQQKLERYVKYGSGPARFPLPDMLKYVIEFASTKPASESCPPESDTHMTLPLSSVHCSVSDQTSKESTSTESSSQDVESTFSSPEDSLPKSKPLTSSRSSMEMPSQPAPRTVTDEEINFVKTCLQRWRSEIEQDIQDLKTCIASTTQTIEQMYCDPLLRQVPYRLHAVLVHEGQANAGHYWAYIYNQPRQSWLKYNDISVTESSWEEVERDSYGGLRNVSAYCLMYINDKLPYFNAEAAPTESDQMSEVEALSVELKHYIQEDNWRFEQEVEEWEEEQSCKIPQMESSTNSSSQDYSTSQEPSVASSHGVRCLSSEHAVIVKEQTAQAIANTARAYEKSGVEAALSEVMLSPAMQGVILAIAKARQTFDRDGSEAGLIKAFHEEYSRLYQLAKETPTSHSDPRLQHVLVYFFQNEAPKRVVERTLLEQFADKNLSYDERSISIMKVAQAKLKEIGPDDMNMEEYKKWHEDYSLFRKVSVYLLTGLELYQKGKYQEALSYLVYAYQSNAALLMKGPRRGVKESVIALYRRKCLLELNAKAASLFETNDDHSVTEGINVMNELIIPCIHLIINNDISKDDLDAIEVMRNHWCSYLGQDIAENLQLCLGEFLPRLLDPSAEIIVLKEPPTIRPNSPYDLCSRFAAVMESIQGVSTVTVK
Assay: Inhibition of human USP28 (149 to 707 residues) expressed in Escherichia coli Rosetta 2 (DE3) cells using Ub-Rh110Gly as fluorogenic substrate at 40 uM preincubated for 1 hr followed by substrate addition by plate reader analysis

inhibition: inactive
SMILES: N#Cc1ncc(C(=O)NCc2ccc(C(=O)NC34CC5CC(CC(C5)C3)C4)cc2)cn1
